Reference: patent US11286242B2 (priority 2018, dated 2022)

system: Alternaria solani; assay: Alternaria solani (early blight of tomato/potato) radial mycelial growth on Potato Dextrose Agar; format: cell-based; conditions: 168 h, Potato Dextrose Agar, 25° C., 60% relative humidity, seven days, read-out: control compared to the untreated check
Protocol: Example 4: Alternaria solani (Early Blight of Tomato/Potato)
Compounds were dissolved in 0.3% DMSO & then added to Potato Dextrose Agar medium just prior to dispensing it into petri dishes. 5 mL medium with compound in the desired concentration was dispensed into 60 mm sterile petri-plates. After solidification each plate was seeded with 5 mm size mycelial disc taken form periphery of actively growing virulent culture plate. Plates were incubated in growth chambers at 25° C. temperature and 60% relative humidity for seven days and radial growth was measured.

Compound | inhibition of growth at 300 ppm [%]
COc1cccc(S(=O)(=O)NC(=O)c2ccc(-c3noc(C(F)(F)F)n3)cc2)c1 [Compound 158, N-((3-methoxyphenyl)sulfonyl)-4-(5-(trifluoromethyl)-1,2,4-oxadiazol-3-yl)benzamide] | > 70
CS(=O)(Cc1cccc(F)c1F)=NC(=O)c1ccc(-c2noc(C(F)(F)F)n2)cc1 (centres unmarked) [Compound 33, N-((2,3-difluorobenzyl)(methyl)(oxo)-λ^6-sulfaneylidene)-4-(5-(trifluoromethyl)-1,2,4-oxadiazol-3-yl)benzamide] | > 70
O=C(NS(=O)(=O)c1c(Cl)cccc1Cl)c1ccc(-c2noc(C(F)(F)F)n2)cc1 [Compound 163, N-((2,6-dichlorophenyl)sulfonyl)-4-(5-(trifiuoromethyl)-1,2,4-oxadiazol-3-yl)benzamide] | > 70
CS(=O)(Cc1ccccc1F)=Nc1ccc(-c2noc(C(F)(F)F)n2)cc1 (centres unmarked) [Compound 94, (2-fluorobenzyl)(methyl)((4-(5-(trifluoromethyl)-1,2,4-oxadiazol-3-yl)phenyl)imino)-λ^6-sulfanone] | > 70
O=C(NS(=O)(=O)c1ccc(Br)cc1)c1ccc(-c2noc(C(F)(F)F)n2)cc1 [Compound 162, N-((4-bromophenyl)sulfonyl)-4-(5-(trifluoromethyl)-1,2,4-oxadiazol-3-yl)benzamide] | > 70

system: Pyricularia oryzae; assay: microbe, parasite or virus in culture; format: cell-based; conditions: 168 h, read-out: control compared to the untreated check

Compound | inhibition of growth at 300 ppm [%]
CS(=O)(=NC(=O)c1ccc(-c2noc(C(F)(F)F)n2)cc1)c1ccccc1F (centres unmarked) [Compound 3, N-((2-fluorophenyl)(methyl)(oxo)-λ^6-sulfanylidene)-4-(5-(trifluoromethyl)-1,2,4-oxadiazol-3-yl)benzamide] | > 70
CS(=O)(=NCc1cccc(-c2noc(C(F)(F)F)n2)c1)c1cc(F)ccc1Br (centres unmarked) [Compound 146, (2-bromo-5-fluorophenyl)(methyl)((3-(5-(trifluoromethyl)-1,2,4-oxadiazol-3-yl)benzyl)imino)-λ^6-sulfanone] | > 70
CS(=O)(=NCc1cccc(-c2noc(C(F)(F)F)n2)c1)c1ccc(Br)cc1F (centres unmarked) [Compound 147, (4-bromo-2-fluorophenyl)(methyl)((3-(5-(trifluoromethyl)-1,2,4-oxadiazol-3-yl)benzyl)imino)-λ^6-sulfanone] | > 70
CS(=O)(=Nc1ccc(-c2noc(C(F)(F)F)n2)cc1F)c1cccc(F)c1 (centres unmarked) [Compound 169, ((2-fluoro-4-(5-(trifluoromethyl)-1,2,4-oxadiazol-3-yl)phenyl)imino)(3-fluorophenyl)(methyl)-λ^6-sulfanone] | > 70
CS(=O)(=Nc1ccc(-c2noc(C(F)(F)F)n2)cc1)c1ccc(F)c(F)c1 (centres unmarked) [Compound 97, (3,4-difluorophenyl)(methyl)((4-(5-(trifluoromethyl)-1,2,4-oxadiazol-3-yl)phenyl)imino)-λ^6-sulfanone] | > 70
COc1cccc(S(C)(=O)=Nc2ccc(-c3noc(C(F)(F)F)n3)nc2)c1 (centres unmarked) [Compound 127, (3-methoxyphenyl)(methyl)((6-(5-(trifluoromethyl)-1,2,4-oxadiazol-3-yl)pyridin-3-yl)imino)-λ^6-sulfanone] | > 70
CS(=O)(=Nc1ccc(-c2noc(C(F)(F)F)n2)nc1)c1ccc(C(F)(F)F)cc1 (centres unmarked) [Compound 124, methyl((6-(5-(trifluoromethyl)-1,2,4-oxadiazol-3-yl)pyridin-3-yl)imino)(4-(trifluoromethyl)phenyl)-λ^6-sulfanone] | > 70
COc1ccc(S(C)(=O)=Nc2ccc(-c3noc(C(F)(F)F)n3)cc2F)cc1 (centres unmarked) [Compound 171, ((2-fluoro-4-(5-(trifluoromethyl)-1,2,4-oxadiazol-3-yl)phenyl)imino)(4-methoxyphenyl)(methyl)-λ^6-sulfanone] | > 70
CS(=O)(=NCc1ccc(F)cc1)c1ccc(-c2noc(C(F)(F)F)n2)cc1 (centres unmarked) [Compound 183] | > 70
CC(C)S(=O)(=NCc1ccc(-c2noc(C(F)(F)F)n2)cc1)c1ccccc1 (centres unmarked) [Compound 151, isopropyl(phenyl)((4-(5-(trifluoromethyl)-1,2,4-oxadiazol-3-yl)benzyl)imino)-λ^6-sulfanone] | > 70
CS(=O)(=NCc1ccc(-c2noc(C(F)(F)F)n2)cc1)c1ccccn1 (centres unmarked) [Compound 27, methyl(pyridin-2-yl)((4-(5-(trifluoromethyl)-1,2,4-oxadiazol-3-yl)benzyl)imino)-λ^6-sulfanone] | > 70
O=S1(=NCc2cccc(-c3noc(C(F)(F)F)n3)c2)CCOCC1 [Compound 149, 4-((3-(5-(trifluoromethyl)-1,2,4-oxadiazol-3-yl)benzyl)imino)-1,4λ^6-oxathiane 4-oxide] | > 70
CS(=O)(=NCc1cccc(-c2noc(C(F)(F)F)n2)c1)c1nccs1 (centres unmarked) [Compound 144, methyl(thiazol-2-yl)((3-(5-(trifluoromethyl)-1,2,4-oxadiazol-3-yl)benzyl)imino)-λ^6-sulfanone] | > 70
CS(=O)(=Nc1ccc(-c2noc(C(F)(F)F)n2)cc1F)c1ccc(Cl)cc1 (centres unmarked) [Compound 167, (4-chlorophenyl)((2-fluoro-4-(5-(trifluoromethyl)-1,2,4-oxadiazol-3-yl)phenyl)imino)(methyl)-λ^6-sulfanone] | > 70
CS(=O)(=Nc1ccc(-c2noc(C(F)(F)F)n2)cc1F)c1ccccc1 (centres unmarked) [Compound 166, ((2-fluoro-4-(5-(trifluoromethyl)-1,2,4-oxadiazol-3-yl)phenyl)imino)(methyl)(phenyl)-λ^6-sulfanone] | > 70
CS(=O)(=NCc1cccc(-c2noc(C(F)(F)F)n2)c1)c1ccc(Cl)cc1 (centres unmarked) [Compound 143, (4-chlorophenyl)(methyl)((3-(5-(trifluoromethyl)-1,2,4-oxadiazol-3-yl)benzyl)imino)-λ^6-sulfanone] | > 70
CC(C)S(=O)(=NCc1ccc(-c2noc(C(F)(F)F)n2)cc1)c1ccc(Cl)cc1 (centres unmarked) [Compound 152, (4-chlorophenyl)(isopropyl)((4-(5-(trifluoromethyl)-1,2,4-oxadiazol-3-yl)benzyl)imino)-λ^6-sulfanone] | > 70
Cc1cccc(S(C)(=O)=Nc2cccc(-c3noc(C(F)(F)F)n3)c2)c1 (centres unmarked) [Compound 114, methyl(m-tolyl)((3-(5-(trifluoromethyl)-1,2,4-oxadiazol-3-yl)phenyl)imino)-λ^6-sulfanone] | > 70
CS(=O)(=NCc1cccc(F)c1)c1ccc(-c2noc(C(F)(F)F)n2)cc1 (centres unmarked) [Compound 185, ((3-fluorobenzyl)imino)(methyl)(4-(5-(trifluoromethyl)-1,2,4-oxadiazol-3-yl)phenyl)-λ^6-sulfanone] | > 70
CS(=O)(=NCc1ccc(-c2noc(C(F)(F)F)n2)cc1)c1ccccc1F (centres unmarked) [Compound 29, (2-fluorophenyl)(methyl)((4-(5-(trifluoromethyl)-1,2,4-oxadiazol-3-yl)benzyl)imino)-λ^6-sulfanone] | > 70
CS(=O)(=NCc1cccc(-c2noc(C(F)(F)F)n2)c1)c1ccc(F)cc1 (centres unmarked) [Compound 145, (4-fluorophenyl)(methyl)((3-(5-(trifluoromethyl)-1,2,4-oxadiazol-3-yl)benzyl)imino)-λ^6-sulfanone] | > 70
CS(=O)(=Nc1cccc(-c2noc(C(F)(F)F)n2)c1)c1ccccc1 (centres unmarked) [Compound 122, methyl(phenyl)((3-(5-(trifluoromethyl)-1,2,4-oxadiazol-3-yl)phenyl)imino)-λ^6-sulfanone] | > 70
Cc1ccc(S(C)(=O)=Nc2ccc(-c3noc(C(F)(F)F)n3)cc2)cc1 (centres unmarked) [Compound 130, methyl(p-tolyl)((4-(5-(trifluoromethyl)-1,2,4-oxadiazol-3-yl)phenyl)imino)-λ^6-sulfanone] | > 70
CS(=O)(=NCc1cccc(-c2noc(C(F)(F)F)n2)c1)c1ccc(F)c(F)c1 (centres unmarked) [Compound 141, (3,4-difluorophenyl)(methyl)((3-(5-(trifluoromethyl)-1,2,4-oxadiazol-3-yl)benzyl)imino)-sulfanone] | > 70
CS(=O)(=Nc1ccc(-c2noc(C(F)(F)F)n2)cc1)c1ccc(C(F)(F)F)cc1 (centres unmarked) [Compound 19, methyl((4-(5-(trifluoromethyl)-1,2,4-oxadiazol-3-yl)phenyl)imino)(4-(trifluoromethyl)phenyl)-λ^6-sulfanone] | > 70
CS(=O)(=NCc1ccc(F)cc1F)c1ccc(-c2noc(C(F)(F)F)n2)cc1 (centres unmarked) [Compound 184, ((2,4-difluorobenzyl)imino)(methyl)(4-(5-(trifluoromethyl)-1,2,4-oxadiazol-3-yl)phenyl)-λ^6-sulfanone] | > 70
CS(=O)(=NCc1cccc(Cl)c1)c1ccc(-c2noc(C(F)(F)F)n2)cc1 (centres unmarked) [Compound 182, ((3-chlorobenzyl)imino)(methyl)(4-(5-(trifluoromethyl)-1,2,4-oxadiazol-3-yl)phenyl)-λ^6-sulfanone] | > 70

system: Phakopsora pachyrhizi; assay: Phakopsora pachyrhizi test in soybean, preventive spray; format: in vivo; conditions: preventive spray on soybean plants, inoculated one day after treatment, greenhouse 25° C., 90% relative humidity, read-out: control (efficacy, disease severity rating) compared to the untreated check
Protocol: Example 8: Phakopsora pachyrhizi Test in Soybean
Compounds were dissolved in 2% DMSO/Acetone & then mixed with water to the calibrated spray volume of 50 mL and poured into the spray bottles for further applications.
To test the preventive activity of compounds, healthy young soybean plants raised in the greenhouse were sprayed with active compound preparation at the stated application rates inside the spray cabinets using hallowcone nozzles. One day after treatment, the plants were inoculated with spore suspension containing 2.1×10^6 Phakopsora pachyrhizi inoculum. The inoculated plants were then kept in greenhouse chamber at 25° C. temperature & 90% relative humidity for disease expression.
A visual assessment of compound's performance was carried out by rating the disease severity (0-100% scale) on treated plants on 3, 7, 10 & 15 days after application. Efficacy (% control) of the compounds was calculated by comparing the disease rating in the treatment with the one of the untreated control. The sprayed plants were also assessed for compound's plant compatibility by recording symptoms like necrosis, chlorosis & stunting.

Compound | pest or weed control at 500 ppm [%]
CS(=O)(=NC(=O)c1ccc(-c2noc(C(F)(F)F)n2)cc1)c1ccccc1F (centres unmarked) [Compound 3, N-((2-fluorophenyl)(methyl)(oxo)-λ^6-sulfanylidene)-4-(5-(trifluoromethyl)-1,2,4-oxadiazol-3-yl)benzamide] | > 90
CS(=O)(=NCc1ccc(-c2noc(C(F)(F)F)n2)cc1)c1ccccn1 (centres unmarked) [Compound 27, methyl(pyridin-2-yl)((4-(5-(trifluoromethyl)-1,2,4-oxadiazol-3-yl)benzyl)imino)-λ^6-sulfanone] | > 90
CS(=O)(=Nc1ccc(-c2noc(C(F)(F)F)n2)cc1)c1ccc(C(F)(F)F)cc1 (centres unmarked) [Compound 19, methyl((4-(5-(trifluoromethyl)-1,2,4-oxadiazol-3-yl)phenyl)imino)(4-(trifluoromethyl)phenyl)-λ^6-sulfanone] | > 90
